Measured values from patent US12441703B2, “Carboxamides as modulators of sodium channels” (VERTEX PHARMACEUTICALS INCORPORATED, priority 2019, dated 2025).

Molecular target: human NaV 1.8 (Homo sapiens, UniProt Q9Y5Y9)
Assay: E-VIPR assay for detecting and measuring NaV inhibition properties
Format: cell-based
Settings: E-VIPR assay conducted in the presence of human serum; HEK cells expressing truncated human NaV 1.8; read-out: IC50
Outline: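 HEK cells with truncated human NaV1.8 plus KIR2.1 BacMam, hexyl dye loaded 20 min, compound 30 min at room temperature, 11-point 3-fold series […], 0.625% DMSO, with or without human serum. E-VIPR biphasic stimulation at 10 Hz for 10 s; membrane-potential response read as normalized coumarin/oxonol ratio.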

Chain of human NaV 1.8 (Q9Y5Y9 whole entry, looked up): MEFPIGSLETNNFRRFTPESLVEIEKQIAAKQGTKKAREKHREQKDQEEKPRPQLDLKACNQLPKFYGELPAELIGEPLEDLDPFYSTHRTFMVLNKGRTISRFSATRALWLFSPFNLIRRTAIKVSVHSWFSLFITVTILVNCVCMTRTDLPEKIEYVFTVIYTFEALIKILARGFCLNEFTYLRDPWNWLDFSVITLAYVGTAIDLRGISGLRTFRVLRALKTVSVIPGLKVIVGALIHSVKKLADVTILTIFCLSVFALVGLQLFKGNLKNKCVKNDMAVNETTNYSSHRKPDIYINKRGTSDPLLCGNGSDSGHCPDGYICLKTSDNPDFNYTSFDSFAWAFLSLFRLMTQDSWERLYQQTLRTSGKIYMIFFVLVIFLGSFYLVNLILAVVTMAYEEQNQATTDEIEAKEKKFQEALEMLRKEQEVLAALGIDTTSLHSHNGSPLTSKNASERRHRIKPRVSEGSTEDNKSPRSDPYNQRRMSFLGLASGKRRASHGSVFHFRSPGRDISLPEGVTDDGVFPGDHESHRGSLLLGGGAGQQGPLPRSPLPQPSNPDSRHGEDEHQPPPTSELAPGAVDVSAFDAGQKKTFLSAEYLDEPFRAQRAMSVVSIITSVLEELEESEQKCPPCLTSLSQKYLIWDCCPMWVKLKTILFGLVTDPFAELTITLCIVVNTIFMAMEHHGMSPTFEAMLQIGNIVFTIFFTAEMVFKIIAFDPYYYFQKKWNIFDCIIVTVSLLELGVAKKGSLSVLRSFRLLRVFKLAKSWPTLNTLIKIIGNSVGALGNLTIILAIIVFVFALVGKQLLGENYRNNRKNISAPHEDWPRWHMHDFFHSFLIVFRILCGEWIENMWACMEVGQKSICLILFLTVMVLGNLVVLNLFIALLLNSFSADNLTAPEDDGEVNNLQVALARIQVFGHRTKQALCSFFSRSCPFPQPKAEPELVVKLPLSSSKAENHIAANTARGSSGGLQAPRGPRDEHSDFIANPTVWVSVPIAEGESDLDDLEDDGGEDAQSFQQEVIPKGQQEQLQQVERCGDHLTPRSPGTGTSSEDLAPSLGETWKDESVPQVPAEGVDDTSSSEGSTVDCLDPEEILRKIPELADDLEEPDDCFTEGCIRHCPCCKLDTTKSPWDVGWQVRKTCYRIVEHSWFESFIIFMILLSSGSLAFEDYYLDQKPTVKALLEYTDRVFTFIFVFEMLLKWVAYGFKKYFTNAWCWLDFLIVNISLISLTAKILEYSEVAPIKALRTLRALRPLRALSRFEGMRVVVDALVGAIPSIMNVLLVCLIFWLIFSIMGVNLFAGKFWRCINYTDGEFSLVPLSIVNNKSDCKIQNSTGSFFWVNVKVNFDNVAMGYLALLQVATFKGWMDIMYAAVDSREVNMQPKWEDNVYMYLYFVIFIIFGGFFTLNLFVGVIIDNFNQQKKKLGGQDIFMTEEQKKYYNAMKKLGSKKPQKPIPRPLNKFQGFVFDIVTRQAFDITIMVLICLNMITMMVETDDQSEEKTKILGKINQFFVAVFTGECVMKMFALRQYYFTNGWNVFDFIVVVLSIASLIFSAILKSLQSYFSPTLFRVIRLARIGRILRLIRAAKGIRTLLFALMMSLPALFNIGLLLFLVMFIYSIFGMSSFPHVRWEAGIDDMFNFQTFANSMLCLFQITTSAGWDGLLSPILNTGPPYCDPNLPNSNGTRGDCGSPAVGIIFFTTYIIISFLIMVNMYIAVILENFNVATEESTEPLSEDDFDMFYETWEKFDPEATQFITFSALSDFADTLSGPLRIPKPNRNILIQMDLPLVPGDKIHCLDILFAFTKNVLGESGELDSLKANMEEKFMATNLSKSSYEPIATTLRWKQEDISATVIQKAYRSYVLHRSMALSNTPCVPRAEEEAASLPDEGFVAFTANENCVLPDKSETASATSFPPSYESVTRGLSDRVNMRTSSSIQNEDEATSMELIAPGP

Row | Compound | IC50 [nM]
1 | COc1c(C(F)(F)F)ccc(Oc2ccc(F)c(Cl)c2)c1C(=O)Nc1ccnc(C(N)=O)c1 [Compound 57, 4-[[6-(3-chloro-4-fluoro-phenoxy)-2-methoxy-3-(trifluoromethyl)benzoyl]amino]pyridine-2-carboxamide] | 350
2 | CCOc1ccc(Oc2ccc(C(F)(F)F)c(F)c2C(=O)Nc2ccnc(C(N)=O)c2)c(F)c1F [Compound 19, 4-[[6-(4-ethoxy-2,3-difluoro-phenoxy)-2-fluoro-3-(trifluoromethyl)benzoyl]amino]pyridine-2-carboxamide] | 57
3 | COc1cc(OC(F)(F)F)ccc1Oc1ccc(C(F)(F)F)c(NCC(C)C)c1C(=O)Nc1ccnc(C(N)=O)c1 [Compound 87, 4-[[2-(isobutylamino)-6-[2-methoxy-4-(trifluoromethoxy)phenoxy]-3-(trifluoromethyl)benzoyl]amino]pyridine-2-carboxamide] | 1500
4 | [2H]C([2H])([2H])Oc1cc(OC(F)(F)F)ccc1Oc1cc(C(F)(F)F)c(F)cc1C(=O)Nc1ccc(C(N)=O)nc1 [Compound 100, 5-[[5-fluoro-2-[2-(trideuteriomethoxy)-4-(trifluoromethoxy)phenoxy]-4-(trifluoromethyl)benzoyl]amino]pyridine-2-carboxamide] | 630
5 | NC(=O)c1ccc(NC(=O)c2c(Oc3ccc(Cl)cc3F)ccc(C(F)(F)F)c2F)cn1 [Compound 219, 5-[[6-(4-chloro-2-fluoro-phenoxy)-2-fluoro-3-(trifluoromethyl)benzoyl]amino]pyridine-2-carboxamide] | 1500
6 | [2H]C([2H])([2H])Oc1cc(OC(F)(F)F)ccc1Oc1cc(C2CCC(F)(F)CC2)cc(F)c1C(=O)Nc1ccnc(C(N)=O)c1 [Compound 98] | 23
7 | Cc1c(C(F)(F)F)ccc(Oc2c(F)cc(F)cc2F)c1C(=O)Nc1ccnc(C(N)=O)c1 [Compound 143, 4-[[2-methyl-3-(trifluoromethyl)-6-(2,4,6-trifluorophenoxy)benzoyl]amino]pyridine-2-carboxamide] | > 3000
8 | [2H]C([2H])([2H])Oc1cc(OC(F)(F)F)ccc1Oc1ccc2c(c1C(=O)Nc1ccnc(C(N)=O)c1)OC(F)(F)O2 [Compound 114, 4-[[2,2-difluoro-5-[2-(trideuteriomethoxy)-4-(trifluoromethoxy)phenoxy]-1,3-benzodioxole-4-carbonyl]amino]pyridine-2-carboxamide] | 510

The next molecules have a lower IC50 than those just listed; values first:

Row | IC50 [nM] | Compound
9 | 6 | COc1c(Oc2cc(Cl)c(C)c(F)c2C(=O)Nc2ccnc(C(N)=O)c2)ccc(F)c1F [Compound 373, 4-[[4-chloro-6-(3,4-difluoro-2-methoxy-phenoxy)-2-fluoro-3-methyl-benzoyl]amino]pyridine-2-carboxamide]
10 | 4 | COc1cc(OC(F)(F)F)ccc1Oc1ccc(C(F)(F)F)c(C)c1C(=O)Nc1ccnc(C(N)=O)c1 [Compound 151, 4-[[6-[2-methoxy-4-(trifluoromethoxy)phenoxy]-2-methyl-3-(trifluoromethyl)benzoyl]amino]pyridine-2-carboxamide]
11 | 2.7 | COc1c(Oc2cnc(C(F)(F)F)c(F)c2C(=O)Nc2ccnc(C(N)=O)c2)ccc(OC(F)(F)F)c1F [Compound 332, N-(2-carbamoyl-4-pyridyl)-3-fluoro-5-[3-fluoro-2-methoxy-4-(trifluoromethoxy)phenoxy]-2-(trifluoromethyl)pyridine-4-carboxamide]
12 | 2 | COc1cc(OC(F)(F)F)ccc1Oc1ccc(C(F)(F)F)c(Cl)c1C(=O)Nc1ccnc(C(N)=O)c1 [Compound 191, 4-[[2-chloro-6-[2-methoxy-4-(trifluoromethoxy)phenoxy]-3-(trifluoromethyl)benzoyl]amino]pyridine-2-carboxamide]
13 | 2 | COc1cc(OC(F)(F)F)ccc1Oc1ccc(C(F)(F)F)c(F)c1C(=O)Nc1cc[n+]([O-])c(C(N)=O)c1 [Compound 150, 4-[[2-fluoro-6-[2-methoxy-4-(trifluoromethoxy)phenoxy]-3-(trifluoromethyl)benzoyl]amino]-1-oxido-pyridin-1-ium-2-carboxamide]
